In publication PMC11062899, “De novo development of small cyclic peptides that are orally bioavailable” (Nature Chemical Biology, 2023):
Values joined by “and” are separate entries in the source; they are usually repeats but may differ in a detail not shown here. Identical values can stand only once.

Legend:
[1] = biological target: human α-thrombin (Homo sapiens, UniProt P00734); assay: Sub-library screen for active and permeable cyclic peptides (PAMPA plus thrombin inhibition); type: biochemical; conditions: crude, slopes normalized to DMSO; for Residual thrombin activity: Top sample: PAMPA acceptor well after 14 h, 5 μM donor; for Residual thrombin activity: Equilibrated sample: donor sample diluted to theoretical equilibrium (1 μM in assay)
Outline: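 Acylated cyclic peptides at 5 μM in PBS pH 7.4 with 5% DMSO were run through PAMPA for 14 h at room temperature. Acceptor wells and a diluted donor sample at 3 μM, representing maximum permeability, were preincubated 10 min with human α-thrombin (6 nM stock). Z-Gly-Gly-Arg-AMC (150 μM stock) fluorescence was then read for 30 min at 25 °C, and inhibition was taken against a no-peptide control.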

[2] = Passive artificial membrane permeability (PAMPA)

| Residual thrombin activity: Top sample [1] | Residual thrombin activity: Equilibrated sample [1] | Compound | further results |
| --- | --- | --- | --- |
| 93.2 | 95.8 | N#Cc1ccc(C[C@@H]2NC(=O)[C@@H](NC(=O)c3ccc(Cl)s3)CCCSCc3cccc(n3)CSCCNC(=O)C[C@H]3CCCN3C2=O)cc1 [C3-X35-L1] | – |
| 106.0 | 96.7 | N#Cc1ccc(C[C@@H]2NC(=O)[C@@H](NC(=O)c3ccc(Cl)s3)CCCSCCS(=O)(=O)CCSCCNC(=O)C[C@H]3CCCN3C2=O)cc1 [C3-X35-L2] | – |
| 103.5 | 94.6 | N#Cc1ccc(C[C@@H]2NC(=O)[C@@H](NC(=O)c3ccc(Cl)s3)CCCSCc3ccc(cc3)CSCCNC(=O)C[C@H]3CCCN3C2=O)cc1 [C3-X35-L3] | – |
| 103.2 | 97.2 | N#Cc1ccc(C[C@@H]2NC(=O)[C@@H](NC(=O)c3ccc(Cl)s3)CCCSC/C=C/CSCCNC(=O)C[C@H]3CCCN3C2=O)cc1 [C3-X35-L4] | – |
| 107.1 | 100.9 | N#Cc1ccc(C[C@@H]2NC(=O)[C@@H](NC(=O)c3ccc(Cl)s3)CCCSCc3cccc(c3)CSCCNC(=O)C[C@H]3CCCN3C2=O)cc1 [C3-X35-L5] | – |
| 96.5 | 93.5 | N#Cc1ccc(C[C@@H]2NC(=O)[C@@H](NC(=O)c3ccc(Cl)s3)CCCSCc3ccccc3CSCCNC(=O)C[C@H]3CCCN3C2=O)cc1 [C3-X35-L6] | – |
| 106.1 | 102.1 | N#Cc1ccc(C[C@@H]2NC(=O)[C@@H](NC(=O)c3ccc(Cl)s3)CCCSCC(=O)CSCCNC(=O)C[C@H]3CCCN3C2=O)cc1 [C3-X35-L7] | – |
| 102.2 | 98.3 | O=C1C[C@H]2CCCN2C(=O)[C@H](Cc2ccc(C(F)(F)F)cc2)NC(=O)[C@@H](NC(=O)c2ccc(Cl)s2)CCCSCc2cccc(n2)CSCCN1 [C3-X36-L1] | – |
| 105.4 | 99.8 | O=C1C[C@H]2CCCN2C(=O)[C@H](Cc2ccc(C(F)(F)F)cc2)NC(=O)[C@@H](NC(=O)c2ccc(Cl)s2)CCCSCCS(=O)(=O)CCSCCN1 [C3-X36-L2] | – |
| 101.9 | 98.7 | O=C1C[C@H]2CCCN2C(=O)[C@H](Cc2ccc(C(F)(F)F)cc2)NC(=O)[C@@H](NC(=O)c2ccc(Cl)s2)CCCSCc2ccc(cc2)CSCCN1 [C3-X36-L3] | – |
| 103.6 | 102.0 | O=C1C[C@H]2CCCN2C(=O)[C@H](Cc2ccc(C(F)(F)F)cc2)NC(=O)[C@@H](NC(=O)c2ccc(Cl)s2)CCCSC/C=C/CSCCN1 [C3-X36-L4] | – |
| 105.6 | 108.0 | O=C1C[C@H]2CCCN2C(=O)[C@H](Cc2ccc(C(F)(F)F)cc2)NC(=O)[C@@H](NC(=O)c2ccc(Cl)s2)CCCSCc2cccc(c2)CSCCN1 [C3-X36-L5] | – |
| 96.6 | 97.7 | O=C1C[C@H]2CCCN2C(=O)[C@H](Cc2ccc(C(F)(F)F)cc2)NC(=O)[C@@H](NC(=O)c2ccc(Cl)s2)CCCSCc2ccccc2CSCCN1 [C3-X36-L6] | – |
| 101.7 | 101.7 | O=C1CSCCC[C@H](NC(=O)c2ccc(Cl)s2)C(=O)N[C@@H](Cc2ccc(C(F)(F)F)cc2)C(=O)N2CCC[C@@H]2CC(=O)NCCSC1 [C3-X36-L7] | – |
| 78.3 | 49.4 | Cc1cccc(C[C@@H]2NC(=O)[C@@H](NC(=O)c3ccc(Cl)s3)CCCSCc3cccc(n3)CSCCNC(=O)C[C@H]3CCCN3C2=O)c1 [C3-X37-L1] | – |
| 92.4 | 51.6 | Cc1cccc(C[C@@H]2NC(=O)[C@@H](NC(=O)c3ccc(Cl)s3)CCCSCCS(=O)(=O)CCSCCNC(=O)C[C@H]3CCCN3C2=O)c1 [C3-X37-L2] | – |
| 90.5 | 68.7 | Cc1cccc(C[C@@H]2NC(=O)[C@@H](NC(=O)c3ccc(Cl)s3)CCCSCc3ccc(cc3)CSCCNC(=O)C[C@H]3CCCN3C2=O)c1 [C3-X37-L3] | – |
| 84.2 | 63.6 | Cc1cccc(C[C@@H]2NC(=O)[C@@H](NC(=O)c3ccc(Cl)s3)CCCSC/C=C/CSCCNC(=O)C[C@H]3CCCN3C2=O)c1 [C3-X37-L4] | – |
| 100.9 | 83.4 | Cc1cccc(C[C@@H]2NC(=O)[C@@H](NC(=O)c3ccc(Cl)s3)CCCSCc3cccc(c3)CSCCNC(=O)C[C@H]3CCCN3C2=O)c1 [C3-X37-L5] | – |
| 92.8 | 79.2 | Cc1cccc(C[C@@H]2NC(=O)[C@@H](NC(=O)c3ccc(Cl)s3)CCCSCc3ccccc3CSCCNC(=O)C[C@H]3CCCN3C2=O)c1 [C3-X37-L6] | – |
| 84.8 | 58.3 | Cc1cccc(C[C@@H]2NC(=O)[C@@H](NC(=O)c3ccc(Cl)s3)CCCSCC(=O)CSCCNC(=O)C[C@H]3CCCN3C2=O)c1 [C3-X37-L7] | – |
| – | – | CC(C)NCC(O)COc1cccc2ccccc12 (stereo not drawn) [Propranolol, reference compound] | PAMPA permeability: % permeability ([2]; 50 μM, 12–18 h, acceptor concentration relative to equilibrium): 71 ± 9%; Permeability% Average ([2]; 50 μM, 13 h (Fig. 5d)): 91.0%; Permeability% (single replicates R1–R3) ([2]; 50 μM, 13 h (Fig. 5d), listed as Probranolol): 87.80% and 90.16% and 95.18%; Papp at 50 μM ([2]; PAMPA, pH 7.4): 123 nm/s; Permeability% Average ([2]; top well sample vs theoretical equilibrium sample (TIC), average of R1-R3): 71.1%; Permeability% ([2]; top well sample vs theoretical equilibrium sample (TIC), single replicates R1-R3, listed as Probranolol): 79.61% and 72.27% and 61.48% |
